Experimental data published in patent US12297192B2, “Crystal form of pyrimidine sulfonamide compound and preparation method therefor” (WUXI BIOCITY BIOPHARMACEUTICS CO., LTD., priority 2019, dated 2025).

How the values were obtained:
[1] = Solid stability test for Crystal Form A (high temperature, high humidity, strong light, accelerated conditions); format: physicochemical
Source text: See Table 3 below for chromatographic conditions for the HPLC method of solid stability testing:
According to the Guideline for Stability Testing of APIs and Formulations (Chinese Pharmacopoeia 2015 Edition, Volume IV, General Principles 9001).
After being placed under high temperature and high humidity conditions, samples were placed in a desiccator for examination. On the 5th, 10th and 30th days, samples were taken for testing, and the results were compared with the initial test results on day 0. Samples placed under strong light condition were covered with a transparent lid and sealed with a sealing film and samples were taken on the 5th and 10th for testing and the results were compared to the initial test results on day 0. […] Each aliquot was placed in a double-layer LDPE bag. Each layer of LDPE bag was sealed by tying, respectively. Then the LDPE bag was placed in an aluminum foil bag and heat sealed and placed at 25° C./60% relative humidity. Samples were taken at the 3th month, 6th month, 9th month and 12th month, and placed under 40° C./75% relative humidity. Samples were taken at the 1st month, 2^ed month, 3th month and 6th month, respectively. The test results were compared with the initial test results on day 0.

[2] = Pharmacokinetic evaluation in rats; format: in vivo, SD rats
Method: The animals used in this study were SD male rats. The LC/MS/MS method was applied to quantify the plasma drug concentrations in rats at different time points after administration of the test compound intravenously or orally by gavage in order to evaluate the pharmacokinetic characteristics of the test compound in rats.
Sprague Dawley (SD) rats (male, 200-300 g, 7-10 weeks old, Beijing Vital River or Shanghai SLAC).
A clear solution of the test compound was administered to SD rats by tail vein injection (overnight fasting) or oral gavage (overnight fasting). At 0 hour (before administration through tail vein injection) and 0.0833, 0.25, 0.5, 1, 2, 4, 6, 8 and 24 hours after administration through tail vein injection, 200 μL of blood was collected by jugular venipuncture into anticoagulation tubes supplemented with EDTA-K2 (Jiangsu Kangjian Medical Supplies Co., Ltd.). The mixture in the anticoagulation tube was vortexed thoroughly at 4° C. and then centrifuged at 13,000 rpm for 10 minutes to obtain the plasma. At 0 hours (before administration by oral gavage) and 0.5, 1, 2, 4, 6, 8 and 24 hours after administration by oral gavage, 200 μL of blood was collected by jugular venipuncture into anticoagulation tubes supplemented with EDTA-K2 (Jiangsu Kangjian Medical Supplies Co., Ltd.). The mixture in the anticoagulation tube was vortexed thoroughly and the plasma was then centrifuged at 13,000 rpm for 10 minutes to obtain the plasma. Blood concentrations were determined by LC/MS/MS and the relevant pharmacokinetic parameters were calculated using WinNonlin™ Version 6.3 (Pharsight, Mountain View, CA) pharmacokinetics software with a non-compartmental model linear-log trapezoidal method.

[3] = 25° C./60% relative humidity, sealed, 3 months
[4] = 25° C./60% relative humidity, sealed, 6 months
[5] = 25° C./60% relative humidity, sealed, 9 months
[6] = 25° C./60% relative humidity, sealed, 12 months
[7] = 40° C., 75% relative humidity, sealed, 1 month
[8] = 40° C., 75% relative humidity, sealed, 2 months
[9] = 40° C., 75% relative humidity, sealed, 3 months
[10] = 40° C., 75% relative humidity, sealed, 6 months
[11] = High humidity (room temperature/92.5% relative humidity, open), 5 days
[12] = High humidity (room temperature/92.5% relative humidity, open), 10 days
[13] = High humidity (room temperature/92.5% relative humidity, open), 30 days
[14] = High temperature (60° C., open), 5 days
[15] = High temperature (60° C., open), 10 days
[16] = High temperature (60° C., open), 30 days
[17] = Strong light (4500 ± 500 lux-hr, 90 μw-hr/cm^2, sealed), 5 days
[18] = Strong light (4500 ± 500 lux-hr, 90 μw-hr/cm^2, sealed), 10 days

COCCNS(=O)(=O)Nc1ncnc(OCCOc2ncc(Br)cn2)c1-c1ccc2c(c1)OCO2
Appearance ([1]; 0 day (initial)): White powder | Crystal Form ([1]; 0 day (initial)): Crystal Form A | Crystal Form A of the compound of formula (I) (%) ([1]; 0 day (initial)): 99.2% | Total impurities (%) ([1]; 0 day (initial)): 0.26% | Appearance [1, 3]: White powder | Crystal Form [1, 3]: Crystal Form A | Crystal Form A of the compound of formula (I) (%) [1, 3]: 100.2% | Total impurities (%) [1, 3]: 0.13% | Appearance [1, 4]: White powder | Crystal Form [1, 4]: Crystal Form A | Crystal Form A of the compound of formula (I) (%) [1, 4]: 100.1% | Total impurities (%) [1, 4]: 0.20% | Appearance [1, 5]: White powder | Crystal Form A of the compound of formula (I) (%) [1, 5]: 100.0% | Total impurities (%) [1, 5]: 0.13% | Appearance [1, 6]: White powder | Crystal Form A of the compound of formula (I) (%) [1, 6]: 100.1% | Total impurities (%) [1, 6]: 0.16% | Appearance [1, 7]: White powder | Crystal Form A of the compound of formula (I) (%) [1, 7]: 99.2% | Total impurities (%) [1, 7]: 0.14% | Appearance [1, 8]: White powder | Crystal Form A of the compound of formula (I) (%) [1, 8]: 99.3% | Total impurities (%) [1, 8]: 0.14% | Appearance [1, 9]: White powder | Crystal Form [1, 9]: Crystal Form A | Crystal Form A of the compound of formula (I) (%) [1, 9]: 100.6% | Total impurities (%) [1, 9]: 0.13% | Appearance [1, 10]: White powder | Crystal Form [1, 10]: Crystal Form A | Crystal Form A of the compound of formula (I) (%) [1, 10]: 100.2% | Total impurities (%) [1, 10]: 0.20% | Appearance [1, 11]: White powder | Crystal Form A of the compound of formula (I) (%) [1, 11]: 99.7% | Total impurities (%) [1, 11]: 0.30% | Appearance [1, 12]: White powder | Crystal Form A of the compound of formula (I) (%) [1, 12]: 99.5% | Total impurities (%) [1, 12]: 0.31% | Appearance [1, 13]: White powder | Crystal Form A of the compound of formula (I) (%) [1, 13]: 99.5% | Total impurities (%) [1, 13]: 0.15% | Appearance [1, 14]: White powder | Crystal Form A of the compound of formula (I) (%) [1, 14]: 100.1% | Total impurities (%) [1, 14]: 0.30% | Appearance [1, 15]: White powder | Crystal Form A of the compound of formula (I) (%) [1, 15]: 100.0% | Total impurities (%) [1, 15]: 0.31% | Appearance [1, 16]: White powder | Crystal Form A of the compound of formula (I) (%) [1, 16]: 99.1% | Total impurities (%) [1, 16]: 0.14% | Appearance [1, 17]: White powder | Crystal Form A of the compound of formula (I) (%) [1, 17]: 99.7% | Total impurities (%) [1, 17]: 0.29% | Appearance [1, 18]: White powder | Crystal Form A of the compound of formula (I) (%) [1, 18]: 99.6% | Total impurities (%) [1, 18]: 0.30% | Solid stability (conclusion in words) ([1]; high temperature, high humidity or strong light condition): good stability

COCCNS(=O)(=O)Nc1ncnc(OCCOc2ncc(Br)cn2)c1-c1ccc2c(c1)OCO2 [Compound of formula (I)]
Area under the drug concentration-time curve ([2]; intravenous injection 2 mg/kg): 16.09 µM·h | Plasma clearance ([2]; intravenous injection 2 mg/kg, 2 mg/kg): 3.71 mL/min/kg | Area under the drug concentration-time curve ([2]; oral 10 mg/kg): 60.22 µM·h | Peak concentration ([2]; oral 10 mg/kg): 31.99 µM | Peak time ([2]; oral 10 mg/kg): 0.25 h | Bioavailability ([2]; oral 10 mg/kg, 10 mg/kg): 74.9%
